Test results from patent US10508085B2, “Compounds and methods for IDO and TDO modulation, and indications therefor” (Plexxikon Inc., priority 2016, dated 2019).
Like-named read-outs stand apart in the source and are kept apart here.

Assays:
[1] = target: T1, Human Indoleamine 2,3-dioxygenase (IDO) (Homo sapiens, UniProt P14902); assay: Human IDO enzymatic assay (kynurenine level); format: biochemical
T1 construct: His tag (N); made in house; host or cells: E. coli
Procedure, shortened: (§1)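 Kynurenine formed is measured after TCA quench and 50 °C hydrolysis, with % inhibition against full-reaction and no-enzyme controls (5% DMSO). IDO: 6 nM enzyme, 10 μM L-Trp, 5 μM methylene blue, 20 min; TDO: 1 nM, 350 μM L-Trp, 0.4 μM methylene blue, 70 min; both pH 6.5, room temp, E. coli-expressed His-tagged.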

[2] = target: T2, human IDO (IDO1-expressing HEK293 cells) (Homo sapiens, UniProt P14902); assay: Cell based kynurenine assay, IDO1-expressing HEK293 cell clones; details: IDO1-expressing HEK293 cells, geometric mean, read-out: HEK293 IDO1 Kynurenine GMean IC50 (μM) (Cellular Assay)
T2 construct: expressed in transfected cells
T2 sequence (P14902 whole entry): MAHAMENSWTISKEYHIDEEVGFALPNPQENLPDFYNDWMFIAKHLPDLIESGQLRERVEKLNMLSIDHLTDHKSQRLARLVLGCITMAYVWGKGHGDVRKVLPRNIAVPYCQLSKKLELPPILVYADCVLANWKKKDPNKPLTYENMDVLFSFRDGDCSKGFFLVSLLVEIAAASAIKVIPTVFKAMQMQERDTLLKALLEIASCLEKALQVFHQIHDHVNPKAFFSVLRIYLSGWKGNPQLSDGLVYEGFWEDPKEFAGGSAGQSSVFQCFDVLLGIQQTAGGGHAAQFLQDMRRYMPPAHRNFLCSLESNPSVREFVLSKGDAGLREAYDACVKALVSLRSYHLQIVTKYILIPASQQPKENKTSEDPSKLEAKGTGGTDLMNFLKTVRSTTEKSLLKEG
Protocol: (§2) Determine Inhibitor Activity Against IDO or TDO in Cell Based Kynurenine Assay
(§3) IDO1-expressing or TDO-expressing HEK293 cell clones are generated upon stable transfection of plasmids expressing human IDO or human TDO under the control of CMV promoter. Cells are selected in DMEM media supplemented with 10% fetal bovine serum and 1 mg/ml G418 at 37° C. in a humidified incubator supplied with 5% CO2. The assays are performed as follows.
(§4) Cells were seeded in a 96 well plate in 50 μL of culture media at a density of 2.5×10^4 per well. Serial dilutions of compounds (in total volume of 50 μL culture media) are added into cells. 4 wells containing 0.2% DMSO treated cells serve as high controls and 4 wells containing media only with 0.2% DMSO serve as low controls. After 24 hours of incubation, the supernatant was transferred to a 384 well reaction plate and the kynurenine level determined. The percentage inhibition at individual concentrations relative to high and low controls is calculated. The data is analyzed by using nonlinear regression to generate IC50 values.

[3] = target: T3, Human Tryptophan 2,3-dioxygenase (TDO) (Homo sapiens, UniProt P48775); assay: Human TDO enzymatic assay (kynurenine level); format: biochemical
T3 construct: His tag (N); made in house; host or cells: E. coli
T3 sequence (P48775 whole entry): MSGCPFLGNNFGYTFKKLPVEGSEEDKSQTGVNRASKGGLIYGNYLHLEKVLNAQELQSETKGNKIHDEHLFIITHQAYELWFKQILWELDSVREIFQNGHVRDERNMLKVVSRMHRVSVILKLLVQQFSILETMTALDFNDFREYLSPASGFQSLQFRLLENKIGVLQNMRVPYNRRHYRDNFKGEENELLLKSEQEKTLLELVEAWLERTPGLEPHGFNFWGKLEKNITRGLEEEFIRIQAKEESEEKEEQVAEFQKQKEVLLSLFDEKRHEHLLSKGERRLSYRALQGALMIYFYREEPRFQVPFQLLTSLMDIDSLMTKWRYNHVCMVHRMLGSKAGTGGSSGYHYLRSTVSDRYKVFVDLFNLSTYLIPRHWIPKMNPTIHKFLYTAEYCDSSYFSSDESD
Procedure, shortened: as §1

[4] = target: T4, human TDO (TDO-expressing HEK293 cells) (Homo sapiens, UniProt P48775); assay: Cell based kynurenine assay, TDO-expressing HEK293 cell clones
T4 construct: expressed in transfected cells
T4 sequence (P48775 whole entry): as above
Protocol: as §2, §3, §4

[5] = 6 nM IDO, 10 μM L-Trp, geometric mean, read-out: IDO1 GMean: IC50 (μM) (Biochemical Assay)
[6] = 1 nM TDO, 350 μM L-Trp, geometric mean, read-out: TDO GMean: IC50 (μM) (Biochemical Assay)
[7] = TDO-expressing HEK293 cells, 24 hours, geometric mean, read-out: HEK293 TDO Kynurenine GMean IC50 (μM) (Cellular Assay)
[8] = TDO-expressing HEK293 cells, 24 hours incubation, geometric mean, read-out: HEK293 TDO Kynurenine GMean IC50 (μM) (Cellular Assay)
[9] = biochemical assay, comparative examples, 4,6 versus 5,7 indazole, read-out: IDO1
[10] = biochemical assay, comparative examples, 4,6 versus 5,7 indazole, read-out: TDO
[11] = cellular assay, HEK293, 24 hours, comparative examples, read-out: hTDO

T1 sequence (P14902 whole entry): as the sequence (P14902 whole entry) above

Structure (SMILES)	IC50 [1, 5]	IC50 ([2]; 24 hours)	IC50 [3, 6]	IC50 [4, 7]	IC50 ([2]; 24 hours incubation)	IC50 [4, 8]	IC50 [1, 9]	IC50 [3, 10]	IC50 [4, 11]
CC(C)(C1CCN(C(=O)NCCS(C)(=O)=O)CC1)[C@H](O)c1cc(Cl)cc2cn[nH]c12 [Compound P-0556, (S)-4-(1-(5-chloro-1H-indazol-7-yl)-1-hydroxy-2-methylpropan-2-yl)-N-(2-(methylsulfonyl)ethyl)piperidine-1-carboxamide]	0.0001 to 10 µM	0.0001 to 10 µM	0.0001 to 10 µM	0.0001 to 10 µM	–	–	–	–	–
CC(C)C(=O)N1CCC(C(C)(C)[C@H](O)c2cc(Cl)cc3cn[nH]c23)CC1 [Compound P-0544, (S)-1-(4-(1-(5-chloro-1H-indazol-7-yl)-1-hydroxy-2-methylpropan-2-yl)piperidin-1-yl)-2-methylpropan-1-one]	0.0001 to 10 µM	0.0001 to 10 µM	0.0001 to 10 µM	0.0001 to 10 µM	–	–	–	–	–
CC(C)(C1CCN(C(=O)Nc2cccc(F)c2)CC1)[C@@H](O)c1cc(Cl)cc2cn[nH]c12 [Compound P-0434, (R)-4-(1-(5-chloro-1H-indazol-7-yl)-1-hydroxy-2-methylpropan-2-yl)-N-(3-fluorophenyl) piperidine-1-carboxamide]	10 to 100 µM	0.0001 to 10 µM	0.0001 to 10 µM	0.0001 to 10 µM	–	–	–	–	–
O=C(NC1COC1)N1CCC(C(F)(F)C(O)c2cc(Cl)cc3cn[nH]c23)CC1 (stereo not drawn) [Compound P-0464, 4-(2-(5-chloro-1H-indazol-7-yl)-1,1-difluoro-2-hydroxyethyl)-N-(oxetan-3-yl)piperidine-1-carboxamide]	0.0001 to 10 µM	0.0001 to 10 µM	0.0001 to 10 µM	0.0001 to 10 µM	–	–	–	–	–
CC(C)(C1CCCCC1)C(O)c1cc(Cl)cc2cncn12 (stereo not drawn) [Compound P-0086, 1-(7-chloroimidazo[1,5-a]pyridin-5-yl)-2-cyclohexyl-2-methylpropan-1-ol]	0.0001 to 10 µM	–	0.0001 to 10 µM	–	0.0001 to 10 µM	0.0001 to 10 µM	–	–	–
CC(=O)N1CCC(C(C)(C)C(O)c2cc(Cl)cc3cn[nH]c23)CC1 (stereo not drawn) [Compound P-0310, 1-(4-(1-(5-chloro-1H-indazol-7-yl)-1-hydroxy-2-methylpropan-2-yl)piperidin-1-yl)ethan-1-one]	0.0001 to 10 µM	–	0.0001 to 10 µM	–	0.0001 to 10 µM	0.0001 to 10 µM	–	–	–
O=C(c1cccnc1)N1CCC(C(F)(F)C(O)c2c(F)c(Cl)cc3cn[nH]c23)CC1 (stereo not drawn) [Compound P-0341, (4-(2-(5-chloro-6-fluoro-1H-indazol-7-yl)-1,1-difluoro-2-hydroxyethyl)piperidin-1-yl)(pyridin-3-yl)methanone]	0.0001 to 10 µM	–	0.0001 to 10 µM	–	0.0001 to 10 µM	0.0001 to 10 µM	–	–	–
CC1(C)CC(O)(c2cc(Cl)cc3cn[nH]c23)CCN1S(C)(=O)=O (stereo not drawn) [Compound P-0046, 4-(5-chloro-1H-indazol-7-yl)-2,2-dimethyl-1-(methylsulfonyl)piperidin-4-ol]	0.0001 to 10 µM	–	0.0001 to 10 µM	–	> 10 µM	> 10 µM	–	–	–
CC1(C)CN(c2cc(Cl)c(F)c3cn[nH]c23)CCN1S(C)(=O)=O [Compound P-0097, 5-chloro-7-(3,3-dimethyl-4-(methylsulfonyl)piperazin-1-yl)-4-fluoro-1H-indazole]	0.0001 to 10 µM	–	0.0001 to 10 µM	–	0.0001 to 10 µM	0.0001 to 10 µM	–	–	–
CC(C)(C1CCN(C(=O)CC(F)(F)F)CC1)[C@H](O)c1cc(Cl)cc2cn[nH]c12 [Compound P-0531, (S)-1-(4-(1-(5-chloro-1H-indazol-7-yl)-1-hydroxy-2-methylpropan-2-yl)piperidin-1-yl)-3,3,3-trifluoropropan-1-one]	0.0001 to 10 µM	0.0001 to 10 µM	0.0001 to 10 µM	0.0001 to 10 µM	–	–	–	–	–
CC1(C)CN(c2cc(C(F)(F)F)cc3cn[nH]c23)CCN1S(C)(=O)=O [Compound P-0091]	0.0001 to 10 µM	–	0.0001 to 10 µM	–	0.0001 to 10 µM	0.0001 to 10 µM	–	–	–
CC(C)(C(O)c1cc(Cl)cc2cn[nH]c12)[C@H]1C[C@H]2CC[C@@H](C1)N2C(=O)NC1CC1 (stereo partly drawn) [Compound P-0439, (1R,3r,5S)-3-(1-(5-chloro-1H-indazol-7-yl)-1-hydroxy-2-methylpropan-2-yl)-N-cyclopropyl-8-azabicyclo [3.2.1]octane-8-carboxamide]	0.0001 to 10 µM	0.0001 to 10 µM	0.0001 to 10 µM	0.0001 to 10 µM	–	–	–	–	–
CC(C)(C1CCN(C(=O)c2cccnc2)CC1)[C@H](O)c1cc(Cl)cc2cn[nH]c12 [Compound P-0536, (S)-(4-(1-(5-chloro-1H-indazol-7-yl)-1-hydroxy-2-methylpropan-2-yl)piperidin-1-yl)(pyridin-3-yl)methanone]	0.0001 to 10 µM	0.0001 to 10 µM	0.0001 to 10 µM	0.0001 to 10 µM	–	–	–	–	–
COc1cccc(NC(=O)N2CCC(C(C)(C)C(O)c3cc(Cl)cc4cn[nH]c34)CC2)c1 (stereo not drawn) [Compound P-0182, 4-(1-(5-chloro-1H-indazol-7-yl)-1-hydroxy-2-methylpropan-2-yl)-N-(3-methoxyphenyl)piperidine-1-carboxamide]	0.0001 to 10 µM	–	0.0001 to 10 µM	–	0.0001 to 10 µM	0.0001 to 10 µM	–	–	–
O=C1NCCC12CCN(c1cc(Cl)cc3cn[nH]c13)CC2 [Compound P-0111, 8-(5-chloro-1H-indazol-7-yl)-2,8-diazaspiro[4.5]decan-l-one]	0.0001 to 10 µM	–	0.0001 to 10 µM	–	0.0001 to 10 µM	0.0001 to 10 µM	–	–	–
CC(C)(C1CCN(C(=O)Nc2cccc(F)c2)CC1)C(O)c1cc(Cl)cc2cn[nH]c12 (stereo not drawn) [Compound P-0359, 4-(1-(5-chloro-1H-indazol-7-yl)-1-hydroxy-2-methylpropan-2-yl)-N-(3-fluorophenyl) piperidine-1-carboxamide]	0.0001 to 10 µM	–	0.0001 to 10 µM	–	0.0001 to 10 µM	0.0001 to 10 µM	–	–	–
OC1(c2cc(Cl)cc3[nH]ncc23)CC2(CCC2)C1 [drawing 819]	–	–	–	–	–	–	22 µM	0.04 µM	0.03 µM
Cc1ccc2cn[nH]c2c1C(O)C1(C)CCCCC1 (stereo not drawn) [Compound P-0015, (6-methyl-1H-indazol-7-yl)(1-methylcyclohexyl)methanol]	0.0001 to 10 µM	–	0.0001 to 10 µM	–	0.0001 to 10 µM	–	–	–	–
COC12CCC(C(O)c3cc(Cl)cc4[nH]ncc34)(CC1)CC2 (stereo not drawn) [drawing 813]	–	–	–	–	–	–	6.6 µM	0.16 µM	0.17 µM
CC(C)(C)OC(=O)N1CCC2(CC1)CC(O)(c1cc(Cl)cc3cn[nH]c13)C2 [Compound P-0019, tert-butyl 2-(5-chloro-1H-indazol-7-yl)-2-hydroxy-7-azaspiro[3.5]nonane-7-carboxylate]	–	–	–	–	> 10 µM	–	–	–	–
OC(c1ccccc1)c1cccc2cncn12 (stereo not drawn) [Compound P-0057, imidazo[1,5-a]pyridin-5-yl(phenyl)methanol]	0.0001 to 10 µM	–	0.0001 to 10 µM	–	> 10 µM	–	–	–	–
OC1(c2cc(Cl)cc3cn[nH]c23)CC2(CCC2)C1 [drawing 818]	–	–	–	–	–	–	0.14 µM	0.04 µM	2.94 µM
CS(=O)(=O)N1CC(O)(c2cc(Cl)cc3cn[nH]c23)C1 [Compound P-0024, 3-(5-chloro-1H-indazol-7-yl)-1-(methylsulfonyl)azetidin-3-ol]	–	–	–	–	> 10 µM	–	–	–	–
OC1(c2cc(Cl)cc3cn[nH]c23)CC2(CCNCC2)C1 [Compound P-0020, 2-(5-chloro-1H-indazol-7-yl)-7-azaspiro[3.5]nonan-2-ol]	–	–	> 200 µM	–	> 10 µM	> 10 µM	–	–	–
OC(c1cc(Cl)cc2[nH]ncc12)C1CCCCC1 (stereo not drawn) [drawing 811]	–	–	–	–	–	–	3.25 µM	6.06 µM	0.05 µM
O=S1(=O)CC2(CC(O)(c3cc(Cl)cc4cn[nH]c34)C2)C1 [Compound P-0056, 6-(5-chloro-1H-indazol-7-yl)-6-hydroxy-2-thiaspiro[3.3]heptane 2,2-dioxide]	10 to 100 µM	–	–	–	> 10 µM	–	–	–	–
CS(=O)(=O)N1CCC(O)(c2cc(Cl)cc3cn[nH]c23)CC1 [Compound P-0023, 4-(5-chloro-1H-indazol-7-yl)-1-(methylsulfonyl)piperidin-4-ol]	–	–	–	–	> 10 µM	–	–	–	–
CC(C)(C1CCN(S(C)(=O)=O)CC1)C(O)c1cc(Cl)cc2[nH]ncc12 (stereo not drawn) [drawing 815]	–	–	–	–	–	–	0.7 µM	0.1 µM	0.01 µM
OC1(c2cc(Cl)cc3[nH]ncc23)CC2(CCOCC2)C1 [drawing 821]	–	–	–	–	–	–	≥ 200 µM	0.18 µM	0.57 µM
